In brackets after ≈: the same amount, converted by molar mass. Like-named read-outs stand apart in the source and are kept apart here.
Legend:
[1] = tested on: Trichophyton mentagrophytes #4329; test: MIC, two-fold agar dilution, T. mentagrophytes #4329; type: cell-based
Description: (§1) Minimum inhibitory concentrations (MICs) of nine 4'-N-substituted pradimicin derivatives were determined by two-fold agar dilution method on phosphate-buffered yeast morphology agar (YMA, pH 7.0, Difco Laboratories). A 5-μl of fungal cell suspension containing 2×10^6 cells/ml (2×10^7 cells/ml for Trichophyton mentagrophytes) were spotted on the surface of the agar plates containing test compound. MICs were recorded after 40-hour incubation at 28° C. except for T. mentagrophytes, which required 60-hour incubation to produce visually evaluable growth on the drug-free control plates and were defined as the lowest antibiotic concentrations showing no growth or less than five discrete colonies per spot.
(§2) Medium: yeast morphology agar + 1/15 M phosphate buffer (pH 7.0)
(§3) Incubation conditions: 28° C., 40 hours (C. albicans ATCC 38247 & T.
(§4) mentagrophytes #4329: 28° C., 60 hours).
(§5) Medium: Yeast morphology agar + 1/15 phosphate buffer (pH 7.0).

[2] = tested on: Candida albicans ATCC 38247; test: MIC, two-fold agar dilution, C. albicans ATCC 38247; type: cell-based; conditions: ATCC38247, YMA pH 7.0, 28° C., 60 hours (table footnote)
Description: as §1, §2, §3, §4, §5

Candida albicans A9540 [3] = test: animal or person; type: in vivo, male ICR mice infected with Candida albicans A9540
Description: (§6) The in vivo therapeutic efficacies of seven 4'-N-substituted pradimicin derivatives, KHM-1, KHM-2, KHM-3, KHM-4, KHM-5, KHM-6 and KHM-7 were evaluated in the mouse infected with Candida albicans A9540 and Aspergillus fumigatusIAM 2034. Groups of five specific-pathogen-free male ICR mice weighing 20-25 g at each dose level were intravenously infected with approximately 10 times the 50% lethal dose of C. albicans A9540 (1×10^6 cells/mouse) or A. fumigatus IAM 2034 (1×10^7 cells/mouse). Immediately after the fungal infection, test compounds dissolved with 10% DMSO in distilled water were intravenously given to the mouse at the dosed volume of 0.1 ml/10 g of body weight. […] Untreated control animals died 7 to 13 days post-infection.

Candida albicans A9540 [4] = test: MIC, two-fold agar dilution, C. albicans A9540; type: cell-based
Description: as §1, §2, §3, §5

[5] = tested on: Candida tropicalis IFO 10241; test: MIC, two-fold agar dilution, C. tropicalis IFO 10241; type: cell-based; conditions: IFO10241, YMA pH 7.0, 28° C., 40 hours
Description: as §1, §2, §3, §5

[6] = tested on: Candida albicans ATCC 32354; test: MIC, two-fold agar dilution, C. albicans ATCC 32354; type: cell-based; conditions: ATCC32354, YMA pH 7.0, 28° C., 40 hours
Description: as §1, §2, §3, §5

[7] = tested on: Cryptococcus neoformans IAM 4514; test: MIC, two-fold agar dilution, C. neoformans IAM 4514; type: cell-based; conditions: IAM4514
Description: as §1, §2, §3, §5

[8] = tested on: Candida albicans IAM 4888; test: MIC, two-fold agar dilution, C. albicans IAM 4888; type: cell-based; conditions: IAM4888, YMA pH 7.0, 28° C., 40 hours
Description: as §1, §2, §3, §5

[9] = tested on: Aspergillus fumigatus IAM 2034; test: Therapeutic efficacy in Aspergillus fumigatus systemic infection in mice; type: in vivo, male ICR mice infected with Aspergillus fumigatus IAM 2034; conditions: for S/T (No. of survivors/tested) / responders at 12.5 mg/kg / responders at 25 mg/kg / responders at 50 mg/kg: 20th day post-infection; for responders at 12.5 mg/kg / responders at 25 mg/kg / responders at 50 mg/kg: read-out: S/T (No. of survivors/tested) (converted)
Description: as §6

[10] = tested on: Saccharomyces cerevisiae ATCC 9763; test: MIC, two-fold agar dilution, S. cerevisiae ATCC 9763; type: cell-based; conditions: ATCC9763, YMA pH 7.0, 28° C., 40 hours
Description: as §1, §2, §3, §5

[11] = tested on: Cryptococcus neoformans D49; test: MIC, two-fold agar dilution, C. neoformans D49; type: cell-based; conditions: YMA pH 7.0, 28° C., 40 hours
Description: as §1, §2, §3, §5

[12] = tested on: Aspergillus fumigatus IAM 2034; test: MIC, two-fold agar dilution, A. fumigatus IAM 2034; type: cell-based; conditions: IAM2034
Description: as §1, §2, §3, §5

Candida albicans 83-2-14 = test: MIC, two-fold agar dilution, C. albicans 83-2-14; type: cell-based; conditions: 83214, YMA pH 7.0, 28° C., 40 hours
Description: as §1, §2, §3, §5

Candida tropicalis 85-8 = test: MIC, two-fold agar dilution, C. tropicalis 85-8; type: cell-based; conditions: 858, YMA pH 7.0, 28° C., 40 hours
Description: as §1, §2, §3, §5

[13] = Table 3, Trichophyton mentagrophytes #4329, YMA, read-out: MIC TM-4
[14] = Trichophyton mentagrophytes #4329, YMA pH 7.0, 28° C., 60 hours, read-out: MIC
[15] = Candida albicans, A9540, 480 h, Table 2, C. albicans, mice, iv, 95% confidence limits in parentheses, read-out: PD50 (50% protection dose)
[16] = Candida albicans A9540, YMA pH 7.0, 28° C., 40 hours, read-out: MIC
[17] = Table 3, Candida albicans A9540, YMA, read-out: MIC Ca-4
[18] = Cryptococcus neoformans IAM 4514, YMA pH 7.0, 28° C., 40 hours, read-out: MIC
[19] = Table 3, Cryptococcus neoformans IAM 4514, YMA, read-out: MIC Cn-2
[20] = IAM2034, 480 h, Table 3, Aspergillus fumigatus IAM 2034, iv, read-out: PD50 (mice) Af-3
[21] = Aspergillus fumigatus IAM 2034, YMA pH 7.0, 28° C., 40 hours, read-out: MIC
[22] = Table 3, Aspergillus fumigatus IAM 2034, YMA, read-out: MIC Af-3
[23] = 480 h, Table 3, Candida albicans A9540, iv, read-out: PD50 (mice) Ca-4
[24] = Aspergillus fumigatus, IAM2034, 480 h, A. fumigatus, mice, 12.5 mg/kg iv
[25] = Aspergillus fumigatus, IAM2034, 480 h, A. fumigatus, mice, 25 mg/kg iv
[26] = Aspergillus fumigatus, IAM2034, 480 h, A. fumigatus, mice, 50 mg/kg iv
[27] = Aspergillus fumigatus, IAM2034, 480 h, Table 2, A. fumigatus, mice, iv, 95% confidence limits in parentheses, read-out: PD50 (50% protection dose)
[28] = Candida albicans, A9540, in Mus musculus, iv, 480 h, read-out: S/T (No. of survivors/tested)

Row | Structure (SMILES) | MIC [1, 13] [µg/mL] | MIC [1, 14] [µg/mL] | MIC [2] [µg/mL] | ED50 (Candida albicans A9540 [3]; [15]) [mg/kg] | MIC (Candida albicans A9540 [4]; [16]) [µg/mL] | MIC (Candida albicans A9540 [4]; [17]) [µg/mL] | MIC [5] [µg/mL] | MIC [6] [µg/mL] | MIC [7, 18] [µg/mL] | MIC [7, 19] [µg/mL] | MIC [8] [µg/mL] | ED50 [9, 20] [mg/kg] | MIC [10] [µg/mL] | MIC [11] [µg/mL] | MIC [12, 21] [µg/mL] | MIC [12, 22] [µg/mL] | MIC (Candida albicans 83-2-14) [µg/mL] | MIC (Candida tropicalis 85-8) [µg/mL] | ED50 (Candida albicans A9540 [3]; [23]) [mg/kg] | responders at 12.5 mg/kg [9, 24] [%] | also measured
1 | COc1cc(O)c2c(c1)C(=O)c1c(cc3c(c1O)-c1c(cc(C)c(C(=O)N[C@H](C)C(=O)O)c1O)[C@H](O[C@@H]1O[C@H](C)[C@H](N(C)C#N)[C@H](O[C@@H]4OC[C@@H](O)[C@H](O)[C@H]4O)[C@H]1O)[C@H]3O)C2=O [KHM-1, 4'-N-Cyanogradimicin A] | 25 (≈ 28.9 µM) | 25 (≈ 28.9 µM) | 1.6 (≈ 1.85 µM) | 13 | 3.1 (≈ 3.58 µM) | 3.1 (≈ 3.58 µM) | 12.5 (≈ 14.4 µM) | 3.1 (≈ 3.58 µM) | 3.1 (≈ 3.58 µM) | 3.1 (≈ 3.58 µM) | 3.1 (≈ 3.58 µM) | > 50 | 1.6 (≈ 1.85 µM) | 3.1 (≈ 3.58 µM) | 12.5 (≈ 14.4 µM) | 12.5 (≈ 14.4 µM) | 3.1 (≈ 3.58 µM) | 12.5 (≈ 14.4 µM) |  |  | S/T (No. of survivors/tested) (Candida albicans A9540 [3]; C. albicans, mice, 6.3 mg/kg iv, 20th day post-infection): 1/5; S/T (No. of survivors/tested) (Candida albicans A9540 [3]; C. albicans, mice, 12.5 mg/kg iv, 20th day post-infection): 3/5; S/T (No. of survivors/tested) (Candida albicans A9540 [3]; C. albicans, mice, 25 mg/kg iv, 20th day post-infection): 4/5; S/T (No. of survivors/tested) (Candida albicans A9540 [3]; C. albicans, mice, 50 mg/kg iv, 20th day post-infection): 5/5; S/T (No. of survivors/tested) ([9]; A. fumigatus, mice, 6.3 mg/kg iv): 0.5; S/T (No. of survivors/tested) ([9]; A. fumigatus, mice, 12.5 mg/kg iv): 2/5; S/T (No. of survivors/tested) ([9]; A. fumigatus, mice, 25 mg/kg iv): 0/5; S/T (No. of survivors/tested) ([9]; A. fumigatus, mice, 50 mg/kg iv): 1/5; ED50 ([9]; Aspergillus fumigatus, IAM2034, iv, 480 h, read-out: PD50 (50% protection dose)): > 50 mg/kg
2 | COc1cc(O)c2c(c1)C(=O)c1c(cc3c(c1O)-c1c(cc(C)c(C(=O)N[C@H](CO)C(=O)O)c1O)[C@H](O[C@@H]1O[C@H](C)[C@H](N(C)C#N)[C@H](O[C@@H]4OC[C@@H](O)[C@H](O)[C@H]4O)[C@H]1O)[C@H]3O)C2=O [KHM-3, 4'-Cyanooradimicin FA-1] | 50 (≈ 56.7 µM) | 50 (≈ 56.7 µM) | 3.1 (≈ 3.52 µM) | > 50 | 6.3 (≈ 7.14 µM) | 6.3 (≈ 7.14 µM) | 12.5 (≈ 14.2 µM) | 6.3 (≈ 7.14 µM) | 6.3 (≈ 7.14 µM) | 6.3 (≈ 7.14 µM) | 6.3 (≈ 7.14 µM) | > 50 | 1.6 (≈ 1.81 µM) | 6.3 (≈ 7.14 µM) | 25 (≈ 28.4 µM) | 25 (≈ 28.4 µM) | 6.3 (≈ 7.14 µM) | 12.5 (≈ 14.2 µM) | > 50 | 0 | responders at 12.5 mg/kg (Candida albicans A9540 [3]; Candida albicans, A9540, 480 h, C. albicans, mice, 12.5 mg/kg iv, 20th day post-infection, read-out: S/T (No. of survivors/tested) (converted)): 0%; responders at 25 mg/kg (Candida albicans A9540 [3]; Candida albicans, A9540, 480 h, C. albicans, mice, 25 mg/kg iv, 20th day post-infection, read-out: S/T (No. of survivors/tested) (converted)): 0%; responders at 50 mg/kg (Candida albicans A9540 [3]; Candida albicans, A9540, 480 h, C. albicans, mice, 50 mg/kg iv, 20th day post-infection, read-out: S/T (No. of survivors/tested) (converted)): 40%; responders at 25 mg/kg [9, 25]: 0%; responders at 50 mg/kg [9, 26]: 0%; ED50 [9, 27]: > 50 mg/kg
3 | COc1cc(O)c2c(c1)C(=O)c1c(cc3c(c1O)-c1c(cc(C)c(C(=O)N[C@H](CO)C(=O)O)c1O)[C@H](O[C@@H]1O[C@H](C)[C@H](N(C)N=O)[C@H](O[C@@H]4OC[C@@H](O)[C@H](O)[C@H]4O)[C@H]1O)[C@H]3O)C2=O [KHM-5, 4'-N-Nitrosopradimicin FA-1] | 6.3 (≈ 7.11 µM) | 6.3 (≈ 7.11 µM) | 3.1 (≈ 3.5 µM) | > 50 | 6.3 (≈ 7.11 µM) | 6.3 (≈ 7.11 µM) | 12.5 (≈ 14.1 µM) | 6.3 (≈ 7.11 µM) | 3.1 (≈ 3.5 µM) | 3.1 (≈ 3.5 µM) | 6.3 (≈ 7.11 µM) | > 50 | 3.1 (≈ 3.5 µM) | 3.1 (≈ 3.5 µM) | 3.1 (≈ 3.5 µM) | 3.1 (≈ 3.5 µM) | 6.3 (≈ 7.11 µM) | 12.5 (≈ 14.1 µM) | > 50 | 0 | responders at 12.5 mg/kg (Candida albicans A9540 [3]; [28]): 20%; responders at 25 mg/kg (Candida albicans A9540 [3]; [28]): 0%; responders at 50 mg/kg (Candida albicans A9540 [3]; [28]): 40%; responders at 25 mg/kg [9, 25]: 0%; responders at 50 mg/kg [9, 26]: 40%; ED50 [9, 27]: > 50 mg/kg
